The test system of data set [1] is HUVECs. Nature of the data set: ECIS migration assay. Format: cell-based, human. As to conditions: transfected 48 hrs (mimic 25 nM, anti-miR 75 mM). How it is done: Confluent HUVECs were transfected with controls or miR-148b mimic or anti-miR-148b and, plated on the ECIS chip array (8W1E or 8W10E). The migration speed was calculated in μm/h, capacitance of the plasma membrane is Cm (μF/cm^2) as reported in Giaever, I, and Keese, C R (1991)^29.

For data set [2], the system named is HUVECs. Nature of the data set: Gene (qPCR) and protein (Western blot) expression in transfected HUVECs. Format: cell-based, human. As for the experimental part:
Human umbilical vein ECs (HUVECs; Lonza) were grown in EGM-2 (comprising EBM-2 with growth factors and other supplements) with 2% Foetal Bovine Serum. Confluent HUVECs were treated with 10 ng/ml TNF-α, IL-1β, TGFβ2 (PeproTech); medium and cytokines were changed every two days. SB431542 (Tocris) has been used at the dose of 10 μM. HEK293T cells (ATCC®, CRL-11268) were cultured in D-MEM with 10% FBS (Life Technologies).
Total RNA was extracted using miReasy kit (Qiagen). Real-time quantification to measure miRNAs was performed with the TaqMan miRNA reverse transcription kit and miRNA assay (Life Technology) using Lightcycler 480 (Roche). miRNAs expression was normalized to the U6 […] (snRU6). For mRNA analysis, cDNA was amplified by quantitative real-time PCR (qPCR) and normalized to 18S ribosomal RNA. Each reaction was performed in triplicate. Quantification was performed by the 2^−ΔΔCt method^52. qPCR was used to measure the expression of miR-148b (miR-148b-3p Thermo Fisher Scientific, Cat. #4426961), snRU6 (ThermoFisher Scientific, Cat. #4331182), TGFβ2, SMAD2, CD31, VE-Cadherin, COL1A1, α-SMA, SLUG, VIM, SNAIL, TWIST, ZEB1/2 and 18S rRNA. Primers are pre-designed from Sigma (KiCgStart™ Primers).
Lipofectamine RNAiMAX (Thermo Fisher Scientific) was used to transfect HUVECs with miR-148b mimic, anti-miR-148b and mimic or anti-miR control (25 nM and […], respectively final concentration) or with siRNA targeting SMAD2 (20 nM final concentration), according to the manufacturer's instructions. jetPEI-HUVECs (Polyplus) was used to transfect HUVECs with DNA plasmids. The following functional assays were performed: BrdU incorporation assay using Cell Proliferation colorimetric assay (Roche); Matrigel assay with HUVECs was performed as previously described using BD Matrigel Basement Membrane Matrix (BD Biosciences)^53.
Proteins were extracted from cultured cells or muscles by using ice-cold buffer A (50 mM Hepes, 150 mM NaCl, 1 mM EDTA, 1 mM EGTA, 25 mM NaF, 5 mM NaPPi, 1%Triton, 1% NP40, 1 mM Na3VO4, 0.25% sodium deoxycholate, 0.5 mM Na-orthovanadate, 1 mM benzamidine, 0.1 mM phenylmethylsulfonyl fluoride). Protein concentration was determined using the Bio-Rad Protein Assay Reagent (Bio-Rad Laboratories, UK). Detection of proteins by Western blot analyses was done following separation of whole cell extracts (20 μg) on SDS-polyacrylamide gels. Proteins were transferred to nitrocellulose membranes and probed with the following antibodies: TGFβ2 (Abcam, ab36495, 1:1000), SMAD2 (SantaCruz Biotechnology, Santa Cruz, Calif., USA; #3102, 1:1000), p-SMAD2 (465/467) (Cell Signaling; #3108, 1:1000); CD31 (Abcam., 1:1000), VE-Cadherin (Abcam, ab33168, 1:1000), COL1A1 (Abcam, ab138492, 1:200), FSP-1 (5100A4; Abcam, ab41532, 1:1000), SLUG (Abcam, ab27568, 1:1000), β-actin (Abcam, ab16039, 1:4000), HDAC3 (GeneTex GTX113303, 1:1000) and GAPDH (GeneTex, GT239, 1:1000) (both used as loading control). For detection, the inventors used secondary antibodies conjugated to horseradish peroxidase which were rabbit anti-mouse (Abcam, ab97046, 1:5000) and goat anti-rabbit (Abcam, ab6721, 1:10000). Detection was developed by chemiluminescence reaction (ECL) (Immunoblot, Millipore, 23225).
(In general: In qPCR the cycle at which signal appears reflects the starting amount.)

The results in this text go back to patent publication US20220193111A1, “Method of Treatment” (The University Court of the University of Edinburgh, priority 2018, published 2022).

For the molecule “anti-miR-148b: miR-148b inhibitor oligonucleotide; suitable inhibitor: hsa-miR-148b-3p miRCURY LNA inhibitor, CAAAGTTCTGTGATGCACTG (SEQ ID NO: 6) (commercial miRCURY LNA inhibitor, LNA positions not given here)”, the “EC migration (migration speed)” value in data set [1] is given as “did not cause a change”. The “expression of target genes TGFB2 and SMAD2 (mRNA)” value in data set [2] (anti-miR 75 mM, 48 hrs) is on record as “increased”. For the same molecule, in data set [2] (anti-miR, 48 hrs), the “CD31 and VE-cadherin (Western blot)” value was “suppression”; the “SLUG (Western blot)” value is listed as “up-regulation”; the “SLUG expression (mRNA)” value is “strong up-regulation”; the “TGFB2, SMAD2 and its phosphorylation (Western blot)” value is listed as “upregulation”. In addition, in data set [2] (anti-miR, 48 hrs), the “expression of CD31 and VE-Cadherin (mRNA)” value is “decreased”; the “expression of COL1A1 and FSP-1 (mRNA)” value is “increased”; the “mesenchymal markers COL1A1, FSP-1 (Western blot)” value was “appearance”; the “α-SMA or vimentin (VIM) levels” value is recorded as “without detectable changes”.

B1: miR-148b mimic: miR-148b mimic oligonucleotide; in a particular embodiment has SEQ ID NO: 1, the human precursor miR-148b sequence (nucleic acid)
chain: CAAGCACGAUUAGCAUUUGAGGUGAAGUUCUGUUAUACACUCAGGCUGUGGCUCUCUGAAAGUCAGUGCAUCACAGAACUUUGUCUCGAAAGCUUUCUA
modifications: listed as RNA, chemistry not given here
For the molecule B1, the “EC migration (migration speed)” value in data set [1] is “significantly elevated”. Further, in data set [2] (mimic 25 nM), the “target gene (TGFB2, SMAD2) mRNA” value is recorded as “reduced”. For the same molecule, the “target gene (TGFB2, SMAD2) protein levels” value in data set [2] (mimic 25 nM, Western blot) is given as “reduced”. For the same molecule, the “expression of ACVR1 and ROCK1” value in data set [2] (mimic transfection) is listed as “did not affect”.
